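Values below derive from 48-hour exposures of cells grown in 96-well plates, with endpoints linearly interpolated between the two concentrations bracketing the appropriate inhibition level. Definition used: TGI = concentration required for complete inhibition of growth.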
How the values were obtained:
Assay in all cases: NCI tumour cell line growth inhibition, 48 h
[1] = test system: DLD-1 colon
[2] = test system: DMS 114 small cell lung
[3] = test system: DMS 273 small cell lung
[4] = test system: HOP-18 NSCLC
[5] = test system: KM20L2 colon
[6] = test system: M19-MEL melanoma
[7] = test system: RXF-631 renal
[8] = test system: SNB-78 CNS
[9] = test system: P388 leukemia
[10] = test system: P388/ADR leukemia
[11] = test system: SN12K1 renal

## NCc1cccc(O)c1O
[1]
  TGI: > 100 µM
[2]
  TGI: > 100 µM
[3]
  TGI: > 100 µM
[4]
  TGI: > 100 µM
[5]
  TGI: > 100 µM
[6]
  TGI: > 100 µM
[7]
  TGI: > 100 µM
[8]
  TGI: > 100 µM

## CN(C)CCCNc1ccc2nnn3c4ccc(O)cc4c(=O)c1c23
[1]
  TGI: 18.1 µM
[2]
  TGI: 23.1 µM
[4]
  TGI: 29.1 µM
[5]
  TGI: 17.1 µM
[6]
  TGI: 25.6 µM
[8]
  TGI: 20.7 µM

## O=C1c2c(O)cccc2-c2nn(CCNCCO)c3ccc(NCCNCCO)c1c23
[1]
  TGI: > 41.3 µM
[2]
  TGI: 0.178 µM
[3]
  TGI: 2.54 µM
[4]
  TGI: 5.41 µM
[5]
  TGI: 9.29 µM
[6]
  TGI: 1.15 µM
[7]
  TGI: 5.54 µM
[8]
  TGI: 5.99 µM

## CC1=NN(C(=O)c2ccc(Cl)cc2)C(=O)/C1=C/c1ccccc1O
[1]
  TGI: > 100 µM
[2]
  TGI: > 100 µM
[5]
  TGI: > 100 µM
[6]
  TGI: > 100 µM
[8]
  TGI: > 100 µM

## CC1=C2C(=CO[C@H](C)[C@H]2C)C(=O)C(C(=O)O)=C1O
[1]
  TGI: 66.9 µM
[2]
  TGI: 30 µM
[3]
  TGI: 123 µM
[4]
  TGI: 57.9 µM
[5]
  TGI: 71.7 µM
[6]
  TGI: 79.1 µM
[9]
  TGI: 500 µM
[10]
  TGI: 67.7 µM
[11]
  TGI: 42 µM
[8]
  TGI: 82.8 µM

## COc1ccc(/C(Cl)=C/c2cc(OC)ccc2OC)cc1
[1]
  TGI: > 100 µM
[2]
  TGI: > 100 µM
[3]
  TGI: > 100 µM
[4]
  TGI: > 100 µM
[5]
  TGI: > 100 µM
[6]
  TGI: > 100 µM
[8]
  TGI: > 100 µM

## O=C(O)c1ccccc1N=Cc1ccc(N(CCCl)CCCl)cc1
[1]
  TGI: > 100 µM
[3]
  TGI: > 100 µM
[4]
  TGI: > 100 µM
[5]
  TGI: > 100 µM
[6]
  TGI: > 100 µM
[9]
  TGI: > 100 µM
[10]
  TGI: > 100 µM
[11]
  TGI: > 100 µM
[8]
  TGI: > 100 µM

## CN=C(/N=c1\ssc(=NC)n1C)N(C)C
[1]
  TGI: > 100 µM
[2]
  TGI: > 100 µM
[3]
  TGI: > 100 µM
[4]
  TGI: > 100 µM
[5]
  TGI: > 100 µM
[6]
  TGI: > 100 µM
[7]
  TGI: > 100 µM

## O=C1C=CC(=O)c2c(O)c(NCCOCCO)c(Cl)c(O)c21
[1]
  TGI: 5.51 µM
[3]
  TGI: 14.8 µM
[4]
  TGI: 29.1 µM
[6]
  TGI: 3.22 µM
[8]
  TGI: 30.2 µM

## Cc1ccccc1-c1nc2c(C(=O)NCCN(C)C)cccc2[nH]1
[1]
  TGI: > 100 µM
[2]
  TGI: > 100 µM
[3]
  TGI: > 100 µM
[4]
  TGI: 54.8 µM
[5]
  TGI: > 100 µM
[9]
  TGI: 44.3 µM
[10]
  TGI: > 100 µM
[11]
  TGI: > 100 µM
[8]
  TGI: > 100 µM

## COc1cccc(N[C@@H]2c3cc4c(cc3C(c3cc(OC)c(O)c(OC)c3)[C@H]3C(=O)OCC32)OCO4)c1 (some centres undefined)
[1]
  TGI: 8.35 µM
[2]
  TGI: 4.77 µM
[3]
  TGI: 2.44 µM
[4]
  TGI: 21.7 µM
[5]
  TGI: > 29.4 µM
[6]
  TGI: > 59.7 µM
[9]
  TGI: 0.385 µM
[10]
  TGI: 0.984 µM
[11]
  TGI: 9.55 µM
[8]
  TGI: > 100 µM
